Source: patent publication US10300071B2, “Compositions and methods for inhibition of mycobacteria” (priority 2014, dated 2019)
In brackets after ≈: the same amount, converted by molar mass. Where two headings read alike, the source gives them in different places.

What was measured:
[1] = biological target: Mtb AccD6 (Mycobacterium tuberculosis, UniProt P9WQH5); assay: biochemical; assay type: biochemical; conditions: 300 μM malonyl-CoA, inhibitor 10 μM to 2000 μM
[2] = test system: Mtb strain mc^2-7000; assay: microbe, parasite or virus in culture; assay type: cell-based, Mycobacterium tuberculosis; conditions: 6 days incubation at 37° C., resazurin, read on the 7th day
[3] = test system: S. cerevisiae
[4] = test system: human fibroblast
[5] = Mycobacterium tuberculosis, 144 h, read-out: MIC

Mtb AccD6, sequence (P9WQH5 whole entry, looked up): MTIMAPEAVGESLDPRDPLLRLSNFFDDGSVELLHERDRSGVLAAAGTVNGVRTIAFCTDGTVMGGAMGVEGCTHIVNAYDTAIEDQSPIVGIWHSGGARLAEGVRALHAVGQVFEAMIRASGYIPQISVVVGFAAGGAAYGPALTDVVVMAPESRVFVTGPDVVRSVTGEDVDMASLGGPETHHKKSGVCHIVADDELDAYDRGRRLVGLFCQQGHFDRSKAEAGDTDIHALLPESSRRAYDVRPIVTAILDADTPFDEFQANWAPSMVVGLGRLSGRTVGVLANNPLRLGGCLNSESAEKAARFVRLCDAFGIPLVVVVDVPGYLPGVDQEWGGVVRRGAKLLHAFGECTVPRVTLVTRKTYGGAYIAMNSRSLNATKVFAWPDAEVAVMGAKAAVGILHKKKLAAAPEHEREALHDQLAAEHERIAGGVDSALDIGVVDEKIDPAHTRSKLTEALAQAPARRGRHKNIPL

Compound	IC50 [1]	MIC [2]	concentrations at which not toxic, s. cerevisiae cytotoxicity [3] [µM]	concentrations at which not toxic, human fibroblast cytotoxicity [4] [µM]	IC50 ([1]; read-out: IC50) [nM]	MIC [2, 5] [µM]
CC(C)NC(=O)Nc1ccc(Oc2nc3ccc(Cl)cc3s2)c[n+]1[O-] [NZ-391, 1-{5-[(6-chloro-1,3-benzothiazol-2-yl)oxy]-1-oxo-1λ^5-pyridin-2-yl}-3-(propan-2-yl)urea]	Not Active	Not Active	≥ 100	≥ 100		
COC(=O)C(C)c1ccc(Oc2cnc3cc(Cl)ccc3n2)cc1 (centres unmarked) [NZ-308, methyl 2-{4-[(6-chloroquinoxalin-2-yl)oxy]phenyl}propanoate]			≥ 100	≥ 100	8000	4.5 (≈ 1.54 µg/mL)
CONC(=O)C(C)c1ccc(Oc2cnc3cc(Cl)ccc3n2)cc1 (centres unmarked) [NZ-310, 2-{4-[(6-chloroquinoxalin-2-yl)oxy]phenyl}-N-methoxypropanamide]			≥ 100	≥ 100	182	6 (≈ 2.15 µg/mL)
CC(C(=O)O)c1ccc(Oc2cnc3cc(Cl)ccc3n2)cc1 (centres unmarked) [NZ-309, 2-{4-[(6-chloroquinoxalin-2-yl)oxy]phenyl}propanoic acid]			≥ 100	≥ 100	172	12 (≈ 3.95 µg/mL)
CNC(=O)C(C)c1ccc(Oc2nc3cc(F)c(F)cc3s2)cc1 (centres unmarked) [NZ-387, 2-{4-[(5,6-difluoro-1,3-benzothiazol-2-yl)oxy]phenyl}-N-methylpropanamide]			≥ 100	≥ 100	260	2.7 to 8 (≈ 0.941 to 2.79 µg/mL)
COC(=O)C(C)(C)Oc1ccc(Oc2cnc3cc(Cl)ccc3n2)cc1 [NZ-314, methyl 2-{4-[(6-chloroquinoxalin-2-yl)oxy]phenoxy}-2-methylpropanoate]			≥ 100	≥ 100	17500	6 (≈ 2.24 µg/mL)
CC(C(=O)N1CCOCC1)c1ccc(Oc2nc3ccc(Cl)cc3s2)cc1 (centres unmarked) [NZ-365, 2-{4-[(6-chloro-1,3-benzothiazol-2-yl)oxy]phenyl}-1-(morpholin-4-yl)propan-1-one]			50 to 100	≥ 100	6200	18.9 (≈ 7.61 µg/mL)
CC(C)NC(=O)Nc1ccc(Oc2nc3cc(Cl)ccc3s2)cc1 [NZ-376, 1-{4-[(5-chloro-1,3-benzothiazol-2-yl)oxy]phenyl}-3-(propan-2-yl)urea]		Not Active	≥ 100	≥ 100	874	
CC(C(=O)NCCO)c1ccc(Oc2nc3ccc(Cl)cc3s2)cc1 (centres unmarked) [NZ-370, 2-{4-[(6-chloro-1,3-benzothiazol-2-yl)oxy]phenyl}-N-(2-hydroxyethyl)propanamide]			≥ 100	≥ 100	1000	1.8 (≈ 0.678 µg/mL)
CC(C)NC(=O)Nc1ccc(Oc2nc3ccc(C#N)cc3s2)cc1 [NZ-377, 1-{4-[(6-cyano-1,3-benzothiazol-2-yl)oxy]phenyl}-3-(propan-2-yl)urea]		Not Active	≥ 100	≥ 100	7900	
CC(C(=O)NC(CO)CO)c1ccc(Oc2nc3ccc(Cl)cc3s2)cc1 (centres unmarked) [NZ-371, 2-{4-[(6-chloro-1,3-benzothiazol-2-yl)oxy]phenyl}-N-(1,3-dihydroxypropan-2-yl)propanamide]			≥ 100	≥ 100	860	20 (≈ 8.13 µg/mL)
